Data published in PMC12649549, “Sequence Permutation Generated Lysine and Tryptophan-Rich Antimicrobial Peptides with Enhanced Therapeutic Index” (Antibiotics, 2025).
Like-named read-outs stand apart in the source and are kept apart here.

Assays:
[1] = tested on: A. baumannii 14B00100 (Acinetobacter sp., BCRC number 14B0100)
Outline: (§1)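 Salt and pH tolerance was assessed by determining MICs in LYM medium containing 50–300 mM NaCl, 0.5–2.5 mM MgCl2, or at pH 4.5–6.5, alongside MH broth. The inoculum was 5 × 10^5 CFU/mL.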

S. aureus ATCC 33593 = tested on: S. aureus ATCC 33593
Outline: as §1

S. aureus ATCC 33592 = tested on: S. aureus ATCC 33592
Outline: as §1

Gram-negative bacteria = assay: Geometric mean MIC and therapeutic index, Gram-negative bacteria; assay type: cell-based; settings: Gram-negative bacteria; for GM G− (geometric mean of the MIC values): MH broth, MIC >50 µg/mL counted as 100 µg/mL; for Therapeutic Index (TI) G−: HC10/GM
Outline: (§2)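 Overnight MH cultures were regrown and diluted to 5 × 10^5 CFU/mL, then exposed to peptides at 0.78–50 µg/mL final in MH or modified LYM broth following CLSI microdilution. MICs were combined into geometric means, and TI was computed as HC10 (human red blood cells) divided by GM.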

Gram-positive bacteria = assay: Geometric mean MIC and therapeutic index, Gram-positive bacteria; assay type: cell-based; settings: Gram-positive bacteria; for GM G+ (geometric mean of the MIC values): MH broth, MIC >50 µg/mL counted as 100 µg/mL; for Therapeutic Index (TI) G+: HC10/GM
Outline: as §2

[2] = tested on: Both Gram-positive and -negative bacteria; assay: Geometric mean MIC, therapeutic index and fold changes of MIC, whole panel of strains; assay type: cell-based; settings: for GM G−/+ (geometric mean of the MIC values): Both Gram-positive and -negative bacteria, MH broth, MIC >50 µg/mL counted as 100 µg/mL; for Therapeutic Index (TI) G−/+: HC10/GM, both Gram-positive and -negative bacteria
Outline: as §2

[3] = LYM broth, 0 mM NaCl, 16 h, 37 °C
[4] = LYM broth, 50 mM NaCl, 16 h, 37 °C
[5] = LYM broth, 100 mM NaCl, 16 h, 37 °C
[6] = LYM broth, 200 mM (NaCl), 16 h, 37 °C
[7] = LYM broth, 300 mM (NaCl), 16 h, 37 °C
[8] = MH broth, 5 × 10^5 CFU/mL, 16 h, 37 °C, repeated three times

Ac-RKWLKWLAKKKKW-NH2 [Peptide W5K03]
MIC [1, 3]: 1.56 µg/mL
MIC ([1]; LYM broth, 0.5 mM MgCl2): 3.13 µg/mL
MIC ([1]; LYM broth, 1.5 mM MgCl2): 3.13 µg/mL
MIC ([1]; LYM broth, 2.5 mM MgCl2): 3.13 µg/mL
MIC [1, 4]: 3.13 µg/mL
MIC [1, 5]: 3.13 µg/mL
MIC [1, 6]: 6.25 µg/mL
MIC [1, 7]: 12.5 µg/mL
MIC ([1]; LYM broth, pH 4.5): 1.56 µg/mL
MIC ([1]; LYM broth, pH 5.5): 1.56 µg/mL
MIC ([1]; LYM broth, pH 6.5): 1.56 µg/mL
MIC [1, 8]: 12.5 µg/mL
MIC (S. aureus ATCC 33593; [3]): 25 µg/mL
MIC (S. aureus ATCC 33593; LYM broth, 0.5 mM MgCl2): 25 µg/mL
MIC (S. aureus ATCC 33593; LYM broth, 1.5 mM MgCl2): 25 µg/mL
MIC (S. aureus ATCC 33593; LYM broth, 2.5 mM MgCl2): 50 µg/mL
MIC (S. aureus ATCC 33593; [4]): 25 µg/mL
MIC (S. aureus ATCC 33593; [5]): 50 µg/mL
MIC (S. aureus ATCC 33593; [6]): >50 µg/mL
MIC (S. aureus ATCC 33593; [7]): >50 µg/mL
MIC (S. aureus ATCC 33593; LYM broth, pH 4.5): 25 µg/mL
MIC (S. aureus ATCC 33593; LYM broth, pH 5.5): 25 µg/mL
MIC (S. aureus ATCC 33593; LYM broth, pH 6.5): 12.5 µg/mL
MIC (S. aureus ATCC 33593; [8]): >50 µg/mL
MIC (S. aureus ATCC 33592; [3]): 25 µg/mL
MIC (S. aureus ATCC 33592; LYM broth, 0.5 mM MgCl2): 25 µg/mL
MIC (S. aureus ATCC 33592; LYM broth, 1.5 mM MgCl2): 25 µg/mL
MIC (S. aureus ATCC 33592; LYM broth, 2.5 mM MgCl2): 25 µg/mL
MIC (S. aureus ATCC 33592; [4]): 25 µg/mL
MIC (S. aureus ATCC 33592; [5]): 50 µg/mL
MIC (S. aureus ATCC 33592; [6]): >50 µg/mL
MIC (S. aureus ATCC 33592; [7]): >50 µg/mL
MIC (S. aureus ATCC 33592; LYM broth, pH 4.5): 25 µg/mL
MIC (S. aureus ATCC 33592; LYM broth, pH 5.5): 12.5 µg/mL
MIC (S. aureus ATCC 33592; LYM broth, pH 6.5): 12.5 µg/mL
MIC (S. aureus ATCC 33592; [8]): >50 µg/mL
GM G− (geometric mean of the MIC values) (Gram-negative bacteria): 16.5 µg/mL
Therapeutic Index (TI) G− (Gram-negative bacteria): 6.6
GM G+ (geometric mean of the MIC values) (Gram-positive bacteria): 66.0 µg/mL
Therapeutic Index (TI) G+ (Gram-positive bacteria): 1.6
GM G−/+ (geometric mean of the MIC values) [2]: 33.0 µg/mL
Therapeutic Index (TI) G−/+ [2]: 3.3

Ac-WLAKKKKWRKWLK-NH2 [Peptide W5K08]
MIC [1, 3]: 3.13 µg/mL
MIC ([1]; LYM broth, 0.5 mM MgCl2): 3.13 µg/mL
MIC ([1]; LYM broth, 1.5 mM MgCl2): 3.13 µg/mL
MIC ([1]; LYM broth, 2.5 mM MgCl2): 6.25 µg/mL
MIC [1, 4]: 6.25 µg/mL
MIC [1, 5]: 25 µg/mL
MIC [1, 6]: >50 µg/mL
MIC [1, 7]: >50 µg/mL
MIC ([1]; LYM broth, pH 4.5): 3.13 µg/mL
MIC ([1]; LYM broth, pH 5.5): 3.13 µg/mL
MIC ([1]; LYM broth, pH 6.5): 3.13 µg/mL
MIC [1, 8]: >50 µg/mL
MIC (S. aureus ATCC 33593; [3]): 25 µg/mL
MIC (S. aureus ATCC 33593; LYM broth, 0.5 mM MgCl2): 25 µg/mL
MIC (S. aureus ATCC 33593; LYM broth, 1.5 mM MgCl2): 25 µg/mL
MIC (S. aureus ATCC 33593; LYM broth, 2.5 mM MgCl2): 50 µg/mL
MIC (S. aureus ATCC 33593; [4]): 50 µg/mL
MIC (S. aureus ATCC 33593; [5]): 50 µg/mL
MIC (S. aureus ATCC 33593; [6]): >50 µg/mL
MIC (S. aureus ATCC 33593; [7]): >50 µg/mL
MIC (S. aureus ATCC 33593; LYM broth, pH 4.5): 25 µg/mL
MIC (S. aureus ATCC 33593; LYM broth, pH 5.5): 12.5 µg/mL
MIC (S. aureus ATCC 33593; LYM broth, pH 6.5): 12.5 µg/mL
MIC (S. aureus ATCC 33593; [8]): >50 µg/mL
MIC (S. aureus ATCC 33592; [3]): 25 µg/mL
MIC (S. aureus ATCC 33592; LYM broth, 0.5 mM MgCl2): 25 µg/mL
MIC (S. aureus ATCC 33592; LYM broth, 1.5 mM MgCl2): 25 µg/mL
MIC (S. aureus ATCC 33592; LYM broth, 2.5 mM MgCl2): 50 µg/mL
MIC (S. aureus ATCC 33592; [4]): 50 µg/mL
MIC (S. aureus ATCC 33592; [5]): 50 µg/mL
MIC (S. aureus ATCC 33592; [6]): >50 µg/mL
MIC (S. aureus ATCC 33592; [7]): >50 µg/mL
MIC (S. aureus ATCC 33592; LYM broth, pH 4.5): 25 µg/mL
MIC (S. aureus ATCC 33592; LYM broth, pH 5.5): 25 µg/mL
MIC (S. aureus ATCC 33592; LYM broth, pH 6.5): 12.5 µg/mL
MIC (S. aureus ATCC 33592; [8]): >50 µg/mL
GM G− (geometric mean of the MIC values) (Gram-negative bacteria): 50.0 µg/mL
Therapeutic Index (TI) G− (Gram-negative bacteria): 2.2
GM G+ (geometric mean of the MIC values) (Gram-positive bacteria): 75.8 µg/mL
Therapeutic Index (TI) G+ (Gram-positive bacteria): 1.4
GM G−/+ (geometric mean of the MIC values) [2]: 61.6 µg/mL
Therapeutic Index (TI) G−/+ [2]: 1.8
